Values of other authors as cited in patent US20070082063A1, “Risk assessment and correction of membrane damage of the upper GI tract” (priority 2005, published 2007).

Key:
[1] = humans or animals with normal membrane arachidonate content
[2] = animals with reduced membrane arachidonate

Structure (SMILES)	effect on serum or tissue arachidonate content [1]	effect on membrane arachidonate content [2]
CCCCC/C=C\C/C=C\C/C=C\C/C=C\CCCC(=O)O [ARA, arachidonic acid]	little effect	
CCCCC/C=C\C/C=C\C/C=C\CCCCC(=O)O [GLA, gamma-linolenic acid]		significantly increase
